Experimental findings from US12626779B2, “Determining a targeted therapy using virtual inference of protein activity by regulon enrichment analysis of an individual subject tissue sample” (The Trustees of Columbia University in the City of New York, priority 2015, dated 2026) are described below.

In the test the test system is lung adenocarcinoma cell lines. An excerpt:
FIG. 7A illustrates the probability density for the nonmutated (salmon) and mutated (green) samples based on MPS for six actionable mutations (complete list in FIGS. 21A-21F). Right plots show MPS (v axis) for all samples rank-sorted by MPS; green vertical lines indicate the mutated samples. MPS-defined WT and mutant phenotypes (likelihood ratio >3) are highlighted in salmon and green. […] Scatter plots show drug sensitivity, quantified by the area under the titration curves (AUC), for EGFR-targeting drugs as a function of MPS (expressed as likelihood ratio). Cell lines resembling an EGFR mutated and WT phenotypes are highlighted in green (likelihood ratio >3) and salmon boxes, respectively. Green dots indicate cell lines harboring nonsilent mutations. Solid and doted horizontal lines indicate the mean and 2.33 standard deviation over the mean of the chemoresistant cell lines, respectively. […] Violin plots show the probability density for drug sensitivity (AUC) of the cell lines showing an EGFR WT (green) or mutant (brown) phenotype according to MPS; horizontal lines indicate distribution means, which were contrasted by Student t-test (P values in insets).

Setting [1] is: EGFR-mutated cell lines with MPS>0.5.
[2] abbreviates: cell lines with low EGFR MPS (<−0.5) that yet harbored EGFR mutations.

“And” between values parts separate entries of the source, which are not always exact repeats. Equal entries are not always repeated. Where two headings read alike, the source gives them in different places.

Turning to `CN1CCN(CCOc2cc(OC3CCOCC3)c3c(Nc4c(Cl)ccc5c4OCO5)ncnc3c2)CC1` [AZD0530, saracatinib], the “fraction of cell lines responding to EGFR inhibitors” value is, setting by setting: (EGFR WT cell lines with MPS<−0.5) 33%; (EGFR WT cell lines with MPS>0.5) 50%. The “cell lines observed to be sensitive to the drug (sensitive/total)” value (“cell lines observed … (sensitive/total)” below) is, setting by setting: under setting [1], 5/6; under setting [2], 0/2.
Regarding `C#Cc1cccc(Nc2ncnc3cc(OCCOC)c(OCCOC)cc23)c1` [erlotinib], the “cell lines observed … (sensitive/total)” value is reported as 5/6 under setting [1] and 1/2 under setting [2].
On to `CS(=O)(=O)CCNCc1ccc(-c2ccc3ncnc(Nc4ccc(OCc5cccc(F)c5)c(Cl)c4)c3c2)o1` [lapatinib], for which the “fraction of cell lines responding to EGFR inhibitors” value was 36% and 27%. Besides, the “cell lines observed … (sensitive/total)” value under setting [1] is recorded as 4/6. The “cell lines observed … (sensitive/total)” value under setting [2] is 1/2.
